As a reminder, the IC50 is the concentration that gives 50% inhibition.

The record followed here is US20210047290A1, “SPIRO COMPOUND AS INDOLEAMINE-2,3-DIOXYGENASE INHIBITOR” (SHANGHAI INSTITUTE OF ORGANIC CHEMISTRY, CHINESE ACADEMY OF …, priority 2018, published 2021).

Structures are written as SMILES.

This assay addresses T1, IDO in Hela cells (Homo sapiens, UniProt P14902).
T1 construct: endogenous in cells; host or cells: HeLa cells stimulated with human interferon γ
Kind of assay: Test of cellular activity (kynurenine formation in interferon γ stimulated Hela cells). Type of assay: cell-based. The following applies: head prints IPS cells, method: Hela cells, 48 h incubation, read at 480 nm. On the procedure:
(3) Test Method of Cellular Activity
Hela cells (80 μL) was inoculated on a 96-well plate (5×10^3 for each well) to grow overnight. After the compound was diluted the next day, 1 μL of diluent and 100 μL of culture medium which contains human interferon γ (final concentration: 50 ng/m) were added into the 96-well plate to make the final volume reach […]. After incubating for 48 h, 80 μL of supernate was transferred from each well to a new […]. 10 μL 6.1N trichloroacetic acid was added into each well for mixing and incubation at 50° C. for 30 min, and […] N formyl-kynurenin into kynurenine. The reaction mixture was centrifuged at 2,500 rpm for 10 min, 70 μL of supernatant of each well was transferred to a new 96-well plate and mixed with 100 μL of 2% (w/v) dimethylaminobenzaldehyde acetic acid solution. After placing for 5-10 min, measurement was carried out at 480 nm with the SPECTRAmax i13 reader.

T1 sequence (P14902 whole entry): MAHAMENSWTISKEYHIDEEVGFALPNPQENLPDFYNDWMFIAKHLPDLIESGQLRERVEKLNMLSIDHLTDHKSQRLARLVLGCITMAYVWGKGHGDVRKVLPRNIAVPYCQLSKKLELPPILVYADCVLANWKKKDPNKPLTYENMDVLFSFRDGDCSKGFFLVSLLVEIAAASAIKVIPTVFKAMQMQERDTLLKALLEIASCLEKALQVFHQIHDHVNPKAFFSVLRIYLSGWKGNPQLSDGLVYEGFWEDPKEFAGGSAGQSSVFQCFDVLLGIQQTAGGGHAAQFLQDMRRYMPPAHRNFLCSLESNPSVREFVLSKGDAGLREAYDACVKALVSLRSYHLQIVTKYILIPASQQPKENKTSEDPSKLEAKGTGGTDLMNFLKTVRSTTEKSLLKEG

With `O=C(Nc1ccc(Cl)cn1)C1CC2(CCC(c3ccnc4ccc(F)cc34)CC2)C1` (single isomer, unassigned) [Example 42, N-(5-chloropyridine-2-yl)-7-(6-fluoroquinoline-4-yl)spiro[3.5]nonane-2-carboxamide], the midpoint of inhibition, the IC50, lay at 9.5 nM. As for `O=C(Nc1ccc(F)cc1)C1CC2(CCC(c3ccnc4ccc(F)cc34)CC2)C1` (single isomer, unassigned) [Example 25, N-(4-fluorophenyl)-7-(6-fluoroquinolin-4-yl)spiro[3.5]nonane-2-carboxamide], the figure is 0.69 nM; as for `O=C(Nc1ccc(Cl)c(F)c1)C1CC2(CCC(c3ccnc4ccc(F)cc34)CC2)C1` (single isomer, unassigned) [Example 34, N-(3-fluoro-4-chlorophenyl)-7-(6-fluoroquinoline-4-yl)spiro[3.5]nonane-2-carboxamide], 1.36 nM; as for `O=C(Nc1cccnc1)C1CC2(CCC(c3ccnc4ccc(F)cc34)CC2)C1` (single isomer, unassigned) [Example 33, 7-(6-fluoroquinoline-4-yl)-N-(pyridine-3-yl)spiro[3.5]nonane-2-carboxamide], above 10 nM. The molecule `O=C(Nc1ccc(C(F)(F)F)cc1)C1CC2(CCC(c3ccnc4ccc(F)cc34)CC2)C1` (single isomer, unassigned) [Example 35, 7-(6-fluoroquinolin-4-yl)-N-(4-(trifluoromethyl)phenyl)spiro[3.5]nonane-2-carboxamide] had an IC50 of 6.23 nM. As for `O=C(Nc1ccc(Cl)cc1F)C1CC2(CCC(c3ccnc4ccc(F)cc34)CC2)C1` (single isomer, unassigned) [Example 30, N-(4-chloro-2-fluorophenyl)-7-(6-fluoroquinoline-4-yl)spiro[3.5]nonane-2-carboxamide], the figure is 2.53 nM; as for `O=C(Nc1ccccc1C(F)(F)F)C1CC2(CCC(c3ccnc4ccc(F)cc34)CC2)C1` (single isomer, unassigned) [Example 41, 7-(6-fluoroquinoline-4-yl)-N-(2-(trifluoromethyl)phenyl)spiro[3.5]nonane-2-carboxamide], above 10 nM. As for `O=C(Nc1ccc(Cl)cc1)C1CCC12CCC(c1ccnc3ccc(F)cc13)CC2` (racemic) [Example 10B, (±) N-(4-chlorophenyl)-7-(6-fluoroquinolin-4-yl)spiro[3.5]nonane-1-carboxamide], the figure is above 3 nM; as for `O=C(Nc1cccc(Cl)c1)C1CC2(CCC(c3ccnc4ccc(F)cc34)CC2)C1` (single isomer, unassigned) [Example 36, N-(3-chlorophenyl)-7-(6-fluoroquinoline-4-yl)spiro[3.5]nonane-2-carboxamide], 8.32 nM.

Consider `O=C(Nc1ccc(F)c(Cl)c1)C1CC2(CCC(c3ccnc4ccc(F)cc34)CC2)C1` (single isomer, unassigned) [Example 38, N-(3-chloro-4-fluorophenyl)-7-(6-fluoroquinoline-4-yl)spiro[3.5]nonane-2-carboxamide], for which the IC50 was above 10 nM. As for `O=C(Nc1cccc(-c2ccccc2)c1)C1CC2(CCC(c3ccnc4ccc(F)cc34)CC2)C1` (single isomer, unassigned) [Example 44, N-([1,1′-biphenyl]-3-yl)-7-(6-fluoroquinolin-4-yl)spiro[3.5]nonane-2-carboxamide], the figure is above 10 nM. Then `O=C(Nc1ccncc1)C1CC2(CCC(c3ccnc4ccc(F)cc34)CC2)C1` (single isomer, unassigned) [Example 48], with above 10 nM; and `Cn1ccc(-c2ccc(NC(=O)C3CC4(CCC(c5ccnc6ccc(F)cc56)CC4)C3)cc2F)n1` (single isomer, unassigned) [Example 28, N-(3-fluoro-4-(1-methyl-1H-pyrazol-3-yl)phenyl)-7-(6-fluoroquinolin-4-yl)spiro[3.5]nonane-2-carboxamide], with above 10 nM.
